Target: T1, WEE1 (Homo sapiens, UniProt P30291+Q96SW2)
T1 construct: C-terminal ePL-tagged (DiscoverX, Fremont, CA) full-length WEE1 expression construct; expressed in transfected cells; host or cells: LentiX-HEK293T (Invitrogen), lentiviral transduction; co-expressing GSPT1-GN (G576N, lacking the first 158 amino acids)
Experiment: WEE1-ePL degradation assay (LentiX-WEE1-ePL-GSPT1-ND cells, InCELL Hunter luminescence, 4 h)
Assay type: cell-based
Conditions: 293T-LentiX WEE1-ePL cells; for DC50: read-out: 293T-LentiX WEE1-ePL Degradation 4 hr (EC50)
Description: To generate LentiX-WEE1-ePL-GSPT1-ND cells for the WEE1 degradation assay, LentiX-HEK293T (Invitrogen) were transduced by lentivirus with a C-terminal ePL-tagged (DiscoverX, Fremont, CA) full-length WEE1 expression construct. […] Cells were selected and maintained in complete DMEM media (DMEM, 10% Heat Inactivated FBS, 400 μg/mL Geneticin, and 1 μg/mL puromycin at 37 C and 5% CO2). Cells were passaged every 3-4 days by reseeding 1×10^6 cells in a T150 flask.
Cells were dispensed into 384-well white plates (Corning #3570, NY) that were pre-spotted with compounds using an acoustic dispenser (Echo acoustic transfer system, Beckman Coulter Life Sciences, Carlsbad, CA) as a 10-point dose-response curve with a 3-fold dilution starting at either 1 uM or 10 uM and including a DMSO control. Twenty-five microliters of media containing 2500 cells for LentiX-oeWEE1-ePL was dispensed per well. Assay plates were incubated at 37° C. with 5% CO2 for four hours (WEE1) After incubation, 25 μL of the InCELL Hunter™ Detection Reagent Working Solution (DiscoverX, Fremont, CA) was added to each well and incubated at room temperature for 30 minutes protected from light. After 30 minutes, luminescence was read on a PHERAstar luminometer (Cary, NC).
To determine the half-maximal effective concentration (EC50) values for WEE1-ePL degradation, a four parameter logistic model was used: (Sigmoidal Dose-Response Model) (FIT=(A+((B−A)/1+((C/x)^D)))) where C is the inflection point (EC50), D is the Hill slope, and A and B are the low and high limits of the fit respectively). The lower limit of the fit (value A) is referred to as Ymin. […] The maximum limit constraint, Ymax, is similarly derived using DMSO control. The curves were processed and evaluated using Activity Base (IDBS, Alameda, CA).

[1] = lower limit of the fit (0 = luciferase inhibitor, Ymax = DMSO control)
[2] = lower limit of the fit (Ymin=0 luciferase inhibitor, Ymax DMSO control)

293T-LentiX WEE1-ePL Degradation 4 hr (Ymin) [1]	293T-LentiX WEE1-ePL Degradation 4 hr (Ymin) [2]	DC50 [nM]	Compound
80.095			O=C1CCC(N2Cc3ccc(O[C@H]4CCN(Cc5ccc6cnccc6c5)C4)cc3C2=O)C(=O)N1 (stereo partly drawn) [3-(6-{[(3S)-1-[(isoquinolin-6-yl)methyl]pyrrolidin-3-yl]oxy}-1-oxo-2,3-dihydro-1H-isoindol-2-yl)piperidine-2,6-dione]
	26.54	2.17	COC[C@@H]1CCC[C@@H](c2ccc3cc(CN4CC[C@H](Oc5ccc6c(c5)CN(C5CCC(=O)NC5=O)C6=O)C4)ccc3n2)C1 (stereo partly drawn) [3-(5-{[(3S)-1-({2-[(1R,3R)-3-(methoxymethyl)cyclohexyl]quinolin-6-yl}methyl)pyrrolidin-3-yl]oxy}-1-oxo-2,3-dihydro-1H-isoindol-2-yl)piperidine-2,6-dione]
	29.77	5.82	O=C1CC[C@H](N2Cc3cc(O[C@H]4CCN(Cc5cc6ccc(C7CCOCC7)nc6cc5F)C4)ccc3C2=O)C(=O)N1 [(3S)-3-(5-{[(3S)-1-{[7-fluoro-2-(oxan-4-yl)quinolin-6-yl]methyl}pyrrolidin-3-yl]oxy}-1-oxo-2,3-dihydro-1H-isoindol-2-yl)piperidine-2,6-dione]
	32.24	3.27	O=C1CC[C@H](N2Cc3cc(O[C@H]4CCN(Cc5ccc6nc(N7CCOCC7)ncc6c5F)C4)ccc3C2=O)C(=O)N1 [(3S)-3-(5-{[(3S)-1-{[5-fluoro-2-(morpholin-4-yl)quinazolin-6-yl]methyl}pyrrolidin-3-yl]oxy}-1-oxo-2,3-dihydro-1H-isoindol-2-yl)piperidine-2,6-dione]
	93.39		O=C1CCC(N2Cc3cc(O[C@@H]4CCN(Cc5c[nH]c6cnccc56)C4)ccc3C2=O)C(=O)N1 (stereo partly drawn) [3-(1-oxo-5-{[(3R)-1-({1H-pyrrolo[2,3-c]pyridin-3-yl}methyl)pyrrolidin-3-yl]oxy}-2,3-dihydro-1H-isoindol-2-yl)piperidine-2,6-dione]
86.31			O=C1CCC(N2C(=O)c3ccc(O[C@@H]4CCN(Cc5cnc6ccccc6c5)C4)cc3C2=O)C(=O)N1 (stereo partly drawn) [2-(2,6-dioxopiperidin-3-yl)-5-{[(3R)-1-[(quinolin-3-yl)methyl]pyrrolidin-3-yl]oxy}-2,3-dihydro-1H-isoindole-1,3-dione]
83.71			O=C1CCC(N2C(=O)c3ccc(O[C@@H]4CCN(Cc5ccc6ncccc6c5)C4)cc3C2=O)C(=O)N1 (stereo partly drawn) [2-(2,6-dioxopiperidin-3-yl)-5-{[(3R)-1-[(quinolin-6-yl)methyl]pyrrolidin-3-yl]oxy}-2,3-dihydro-1H-isoindole-1,3-dione]
74.31			NCc1ccccc1COc1cccc(CN2CC[C@H](Oc3ccc4c(c3)CN(C3CCC(=O)NC3=O)C4=O)C2)c1 (stereo partly drawn) [3-(5-{[(3S)-1-[(3-{[2-(aminomethyl)phenyl]methoxy}phenyl)methyl]pyrrolidin-3-yl]oxy}-1-oxo-2,3-dihydro-1H-isoindol-2-yl)piperidine-2,6-dione]
	28.82	2.8	O=C1CC[C@H](N2Cc3cc(O[C@H]4CCN(Cc5ccc6nc(C7CCOCC7)ccc6c5Cl)C4)ccc3C2=O)C(=O)N1 [(3S)-3-(5-{[(3S)-1-{[5-chloro-2-(oxan-4-yl)quinolin-6-yl]methyl}pyrrolidin-3-yl]oxy}-1-oxo-2,3-dihydro-1H-isoindol-2-yl)piperidine-2,6-dione]
	80.98		O=C1CCC(N2Cc3cc(O[C@H]4CCN(Cc5ccc6nc(C7CCOCC7)ccc6c5)C4=O)ccc3C2=O)C(=O)N1 (stereo partly drawn) [3-(5-{[(3S)-1-{[2-(oxan-4-yl)quinolin-6-yl]methyl}-2-oxopyrrolidin-3-yl]oxy}-1-oxo-2,3-dihydro-1H-isoindol-2-yl)piperidine-2,6-dione]
	83.91		O=C1CCC(N2Cc3cc(O[C@@H]4CCN(Cc5cnc6ccccc6c5)C4)ccc3C2=O)C(=O)N1 (stereo partly drawn) [3-(1-oxo-5-{[(3R)-1-[(quinolin-3-yl)methyl]pyrrolidin-3-yl]oxy}-2,3-dihydro-1H-isoindol-2-yl)piperidine-2,6-dione]
42.7		109	O=C1CCC(N2Cc3cc(O[C@H]4CCN(Cc5ccc6cnccc6n5)C4)ccc3C2=O)C(=O)N1 (stereo partly drawn) [3-(5-{[(3S)-1-[(1,6-naphthyridin-2-yl)methyl]pyrrolidin-3-yl]oxy}-1-oxo-2,3-dihydro-1H-isoindol-2-yl)piperidine-2,6-dione]
87			NCc1ccc(COc2cccc(CN3CC[C@H](Oc4ccc5c(c4)CN(C4CCC(=O)NC4=O)C5=O)C3)c2)cc1 (stereo partly drawn) [3-(5-{[(3S)-1-[(3-{[4-(aminomethyl)phenyl]methoxy}phenyl)methyl]pyrrolidin-3-yl]oxy}-1-oxo-2,3-dihydro-1H-isoindol-2-yl)piperidine-2,6-dione]
	94.2		Cc1nc(C)c(CN2CC[C@@H](Oc3ccc4c(c3)CN(C3CCC(=O)NC3=O)C4=O)C2)s1 (stereo partly drawn) [3-(5-{[(3R)-1-[(2,4-dimethyl-1,3-thiazol-5-yl)methyl]pyrrolidin-3-yl]oxy}-1-oxo-2,3-dihydro-1H-isoindol-2-yl)piperidine-2,6-dione]
	26.32	1.82	COC[C@H]1CCC[C@@H](c2ccc3cc(CN4CC[C@H](Oc5ccc6c(c5)CN(C5CCC(=O)NC5=O)C6=O)C4)ccc3n2)C1 (stereo partly drawn) [3-(5-{[(3S)-1-({2-[(1R,3S)-3-(methoxymethyl)cyclohexyl]quinolin-6-yl}methyl)pyrrolidin-3-yl]oxy}-1-oxo-2,3-dihydro-1H-isoindol-2-yl)piperidine-2,6-dione]
	87.11		O=C1CCC(N2Cc3cc(O[C@@H]4CCN(Cc5ccnc6ccccc56)C4)ccc3C2=O)C(=O)N1 (stereo partly drawn) [3-(1-oxo-5-{[(3R)-1-[(quinolin-4-yl)methyl]pyrrolidin-3-yl]oxy}-2,3-dihydro-1H-isoindol-2-yl)piperidine-2,6-dione]
	110		O=C1CCC(N2Cc3cc(O[C@@H]4CCN(c5cnccn5)C4)ccc3C2=O)C(=O)N1 (stereo partly drawn) [3-(1-oxo-5-{[(3R)-1-(pyrazin-2-yl)pyrrolidin-3-yl]oxy}-2,3-dihydro-1H-isoindol-2-yl)piperidine-2,6-dione]
81.05			NCc1cccc(COc2cccc(CN3CC[C@H](Oc4ccc5c(c4)CN(C4CCC(=O)NC4=O)C5=O)C3)c2)c1 (stereo partly drawn) [3-(5-{[(3S)-1-[(3-{[3-(aminomethyl)phenyl]methoxy}phenyl)methyl]pyrrolidin-3-yl]oxy}-1-oxo-2,3-dihydro-1H-isoindol-2-yl)piperidine-2,6-dione]
87.63			NCc1cccc(COc2ccccc2CN2CC[C@H](Oc3ccc4c(c3)CN(C3CCC(=O)NC3=O)C4=O)C2)c1 (stereo partly drawn) [3-(5-{[(3S)-1-[(2-{[3-(aminomethyl)phenyl]methoxy}phenyl)methyl]pyrrolidin-3-yl]oxy}-1-oxo-2,3-dihydro-1H-isoindol-2-yl)piperidine-2,6-dione]
58.74		408	O=C1CCC(N2Cc3cc(O[C@H]4CCN(Cc5cccc6ncncc56)C4)ccc3C2=O)C(=O)N1 (stereo partly drawn) [3-(1-oxo-5-{[(3S)-1-[(quinazolin-5-yl)methyl]pyrrolidin-3-yl]oxy}-2,3-dihydro-1H-isoindol-2-yl)piperidine-2,6-dione]
53.34		174	O=C1CCC(N2Cc3cc(O[C@H]4CCN(Cc5cccc6nccnc56)C4)ccc3C2=O)C(=O)N1 (stereo partly drawn) [3-(1-oxo-5-{[(3S)-1-[(quinoxalin-5-yl)methyl]pyrrolidin-3-yl]oxy}-2,3-dihydro-1H-isoindol-2-yl)piperidine-2,6-dione]
	37.95	1180	C[C@H]1c2cc(O[C@H]3CCN(Cc4ccc5nc(N6CCOCC6)ncc5c4)C3)ccc2C(=O)N1[C@H]1CCC(=O)NC1=O [(3S)-3-[(3S)-3-methyl-5-{[(3S)-1-{[2-(morpholin-4-yl)quinazolin-6-yl]methyl}pyrrolidin-3-yl]oxy}-1-oxo-2,3-dihydro-1H-isoindol-2-yl]piperidine-2,6-dione]
	91.51		O=C1CCC(N2Cc3cc(O[C@@H]4CCN(Cc5cccc6ncccc56)C4)ccc3C2=O)C(=O)N1 (stereo partly drawn) [3-(1-oxo-5-{[(3R)-1-[(quinolin-5-yl)methyl]pyrrolidin-3-yl]oxy}-2,3-dihydro-1H-isoindol-2-yl)piperidine-2,6-dione]
	87.61		O=C1CCC(N2Cc3cc(O[C@@H]4CCN(Cc5c[nH]c6ncccc56)C4)ccc3C2=O)C(=O)N1 (stereo partly drawn) [3-(1-oxo-5-{[(3R)-1-({1H-pyrrolo[2,3-b]pyridin-3-yl}methyl)pyrrolidin-3-yl]oxy}-2,3-dihydro-1H-isoindol-2-yl)piperidine-2,6-dione]

From patent publication US20240067632A1, “WEE1 Degrading Compounds and Uses Thereof” (Bristol-Myers Squibb Company, priority 2022, published 2024)
